Source: patent publication US20260102407A1, “TREATMENT METHODS” (priority 2020, published 2026)

Tests used:
[1] = system: BAEC; assay: Endothelial dual chamber migration assay toward VEGF-A165; type: cell-based, bovine; conditions: 1 μM; Transwell; 10% FBS and 50 ng/ml VEGF-A165 in lower chamber; 24 h
Procedure: Endothelial dual chamber migration assay. BAEC (6×10^3 cells/well) suspended in DMEM supplemented with 10% FBS were seeded into the upper chamber of 24-well plates fitted with Millicell cell culture inserts (cat. PI8P01250, Millipore). After 48 h, the medium was changed to DMEM supplemented with 0.01% FBS and the cells were incubated for 48 h. Compounds prepared in DMEM containing 0.01% FBS were added to the upper chamber. VEGF-A165 (50 ng/ml, Sigma, cat. V7259) in medium containing 10% FBS was added to the lower chamber. After 24 h, medium from the upper chamber was removed and a cotton swab was used to remove non-migrated cells and excess liquid. The insert was placed in 70% ethanol for 10 min to allow cell fixation and membranes were dried for 10-15 min. Filters were excised and placed on slides. Mounting medium (Fluoroshield™ with DAPI, Sigma, cat. 6057) was added and specimens were visualized using an EVOS FL microscope.

[2] = system: HMEC-1; assay: Endothelial repair following in vitro injury (scratch assay); type: cell-based, human; conditions: 0.6 μM, 5% FBS, 48 h
Procedure: Endothelial repair following in vitro injury. HMEC-1 (90-100% confluency) in 6-well plates were washed with PBS, and treated with 0.6 μM compound in MCDB131 containing 5% FBS. A sterile pointed toothpick was used to scrape the cell monolayer and the wells photographed under 4× objective at 0 h and 48 h. Cell regrowth in the denuded zone was determined using Image-Pro Plus (Cybernetics, USA).

[3] = system: FosB/ΔFosB; assay: Western blot, serum-inducible FosB/ΔFosB expression in HMEC-1; type: cell-based, human; conditions: 30 μM compound, 10% FBS 1 h
Procedure: (§1) Western blot analysis with extracts of cells treated with serum. HMEC-1 (80-90% confluency) were arrested in serum-free MCDB131 medium without EGF or hydrocortisone for 20 h. Cells were treated with 30 μM compound in serum-free MCDB131 medium for 4 h, and the medium was changed to complete medium (with 10% FBS with EGF and hydrocortisone) with 30 μM compound for 1 h. Total protein was harvested as previously described in radioimmunoprecipitation (RIPA) lysis buffer with protease inhibitors (Li, Y., et al., Int J Cardiol 220, 185-191 (2016)). Proteins were resolved on 4-20% (w/v) sodium dodecyl sulfate (SDS)-polyacrylamide gradient gels (Bio-Rad Mini-PROTEAN TGX) and transferred to Immobilon-P PVDF membranes (Millipore, USA). Membranes were blocked with 5% skim milk and incubated with rabbit monoclonal FosB (cat. 2251, 1:1000, Cell Signaling, USA), rabbit monoclonal c-Fos antibodies (cat. 2250, 1:1000, Cell Signaling, USA) at 4° C. overnight or mouse monoclonal […] antibodies (cat. A5316, 1:30000, Sigma-Aldrich) at 22° C. for 15 min then incubated with a horseradish peroxidase conjugated secondary goat anti-rabbit (cat. P0448, 1:1000, DAKO Cytomation, Denmark) or goat anti-mouse (cat. P0447, 1:1000, DAKO Cytomation, Denmark) antibodies for 1 h. Chemiluminescence was detected using the Western Lightning Chemiluminescence system (PerkinElmer, USA) and ImageQuant™ LAS 4000 biomolecular imager (GE Healthcare Life Sciences, USA). Band intensity in images generated with the LAS 4000 on automatic exposure with sensitivity/resolution setting high was quantified using NIH ImageJ.

[4] = system: HMEC-1; assay: Endothelial proliferation assay using the xCELLigence system; type: cell-based, human; conditions: HMEC-1, 5% FBS, 79 h; for serum-inducible endothelial proliferation (xCELLigence cell index): 0.2-1 μM
Procedure: Endothelial proliferation assay using the xCELLigence system. HMEC-1 proliferation was evaluated using the xCELLigence System (Roche, Castle Hill). Briefly, HMEC-1 (5×10^3 cells/well) were seeded in a 96-well E-plate and inserted into the xCELLigence RTCA station (Roche). Cells were serum-deprived for 24 h in MCDB131 medium which contained 10 ng/ml EGF (Sigma-Aldrich) and 1 μg/ml hydrocortisone (Sigma-Aldrich) then treated with compound (0.2-1 μM) in medium containing 5% FBS, 10 ng/ml EGF (Sigma-Aldrich) and 1 μg/ml hydrocortisone (Sigma-Aldrich). Cell growth was monitored automatically every 15 min by xCELLigence system. Cell index (CI) represents a quantitative measure of each well cell growth. In this system, CI a unitless parameter that reports impedance of electron flow caused by adherent cells.

[5] = molecular target: T1, Recombinant human His-MEK1 (Homo sapiens, UniProt Q02750); assay: SPR (Biacore T200) on immobilised His-MEK1; type: binding; conditions: 15° C.; 20 mM HEPES, 150 mM NaCl, 5% DMSO pH 7.4
T1 construct: purchased ThermoFisher Scientific PV3303
Procedure: (§2) SPR. SPR was performed on a Biacore T200. The active and reference flow cells of a Xantec NIHMC Ni sensor chip were conditioned with 0.5M NaEDTA followed by 5 mM NiCl2 in immobilisation buffer (20 mM HEPES, 150 mM NaCl, pH 7.4). Recombinant human His-MEK1 and His-MEK2 (500 nM, ThermoFisher Scientific, cat. PV3303 and PV3615, respectively) were injected for 15 min at 10 μl min^−1 over separate active flow cells. All immobilisation was carried out at 25° C. Following immobilisation, the temperature was lowered to 15° C., and the buffer changed to 20 mM HEPES, 150 mM NaCl, 5% DMSO pH 7.4. Samples of PD98059 (2.5-30 μM in running buffer) and BT2 (1.25-15 μM) were injected at a flow rate of 30 μl min^−1 over immobilised MEK1 and MEK2. Solvent correction was applied to the data using a DMSO standard curve. Data were analysed using the Biacore T200 Evaluation software. Prior to SPR, limits of compound solubility were determined using ^1H 1D NMR.

[6] = molecular target: T2, Recombinant human His-MEK2 (Homo sapiens, UniProt P36507); assay: SPR (Biacore T200) on immobilised His-MEK2; type: binding; conditions: 15° C.; 20 mM HEPES, 150 mM NaCl, 5% DMSO pH 7.4
T2 construct: purchased ThermoFisher Scientific PV3615
Procedure: as §2

[7] = system: c-Fos; assay: Western blot, serum-inducible c-Fos expression in HMEC-1; type: cell-based, human; conditions: 30 μM compound, 10% FBS 1 h
Procedure: as §1

[8] = system: HMEC-1; assay: Endothelial network formation assay on Matrigel; type: cell-based, human; conditions: for endothelial network (tubule) formation on Matrigel: 3 μM, 1% FBS, 50 ng/ml FGF-2, 2, 4, 6 and 24 h
Procedure: Endothelial network formation assay. HMEC-1 (4×10^4 cells/well) in MCDB131 containing 1% FBS and compound (1 or 3 μM) or curcumin (1-40 μM) and 50 ng/ml FGF-2 were added to 96-well plates coated overnight at 4° C. with 100 μl of growth factor-reduced reconstituted basement membrane matrix (Matrigel, cat. 354230, Corning, NY). Network formation was observed over subsequent hours and photographed under 4× or 10× objective using an Olympus CKX41 microscope.

[9] = system: p-p38; assay: Western blot, IL-1β-inducible p-p38 in HMEC-1; type: cell-based, human; conditions: 1-30 μM
Procedure: (§3) Western blot analysis with extracts of cells treated with IL-13. HMEC-1 (80-90% confluency) were arrested in serum-free MCDB131 medium (Invitrogen, MD) without any growth factor for 48 h. Cells were treated with 30 μM compound in serum-free medium for 4 h, and incubated with 20 ng/ml IL-1β (Sigma, cat. SRE3083) in serum-free medium with the same concentration of compound for up to 4 h, unless otherwise indicated. Total protein was harvested as previously described using RIPA buffer with protease inhibitors. Proteins were resolved on 4-20% (w/v) SDS-polyacrylamide gradient gels and transferred to Immobilon-P PVDF membranes. […] Chemiluminescence was detected using the Western Lightning Chemiluminescence system and ImageQuant™ LAS 4000 biomolecular imager. Band intensity in images generated with the LAS 4000 using the same settings were quantified by NIH ImageJ.

[10] = system: p-SAPK/JNK; assay: Western blot, IL-1β-inducible p-SAPK/JNK in HMEC-1; type: cell-based, human; conditions: 1-30 μM
Procedure: as §3

[11] = Solubility on dilution in medium containing serum; type: physicochemical; conditions: dilution in medium containing serum

T2 sequence (P36507 whole entry): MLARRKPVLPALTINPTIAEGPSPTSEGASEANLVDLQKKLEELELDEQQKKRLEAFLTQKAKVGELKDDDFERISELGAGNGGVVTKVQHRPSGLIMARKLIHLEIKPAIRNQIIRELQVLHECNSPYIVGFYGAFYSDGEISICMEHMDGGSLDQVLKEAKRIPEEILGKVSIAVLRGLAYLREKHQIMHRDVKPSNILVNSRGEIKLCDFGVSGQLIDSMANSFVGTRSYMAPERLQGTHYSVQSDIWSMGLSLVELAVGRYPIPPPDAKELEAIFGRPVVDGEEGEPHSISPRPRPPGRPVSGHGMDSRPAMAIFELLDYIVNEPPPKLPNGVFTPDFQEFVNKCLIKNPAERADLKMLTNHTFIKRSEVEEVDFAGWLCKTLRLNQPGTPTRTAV
T1 sequence (Q02750 whole entry): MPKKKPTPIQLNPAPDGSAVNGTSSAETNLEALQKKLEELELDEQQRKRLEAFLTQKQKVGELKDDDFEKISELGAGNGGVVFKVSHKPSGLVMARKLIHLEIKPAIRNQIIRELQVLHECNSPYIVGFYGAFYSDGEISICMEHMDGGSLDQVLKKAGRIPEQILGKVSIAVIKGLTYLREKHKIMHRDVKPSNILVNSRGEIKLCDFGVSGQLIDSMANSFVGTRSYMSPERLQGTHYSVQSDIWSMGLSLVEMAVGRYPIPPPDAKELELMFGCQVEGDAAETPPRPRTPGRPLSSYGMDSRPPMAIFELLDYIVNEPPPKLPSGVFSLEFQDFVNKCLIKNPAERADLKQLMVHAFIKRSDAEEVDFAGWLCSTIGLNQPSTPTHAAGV

binding to His-MEK1 (SPR) [5]	binding to His-MEK2 (SPR) [6]	SMILES	migration of BAEC toward VEGF-A165 [1]	endothelial regrowth after mechanical injury in vitro [2]	serum-inducible FosB/ΔFosB expression (Western blot) [3]	serum-inducible endothelial proliferation (xCELLigence cell index) [4]	other results
		Cc1ccc(NC(=O)c2ccc(CN3CCN(C)CC3)cc2)cc1Nc1nccc(-c2cccnc2)n1 [imatinib]	neither BT3, nor PD98059 (allosteric MEK inhibitor), imatinib (tyrosine kinase inhibitor) or tofacitinib (Janus kinase inhibitor) had an inhibitory effect				
		C[C@@H]1CCN(C(=O)CC#N)C[C@@H]1N(C)c1ncnc2[nH]ccc12 [tofacitinib]	neither BT3, nor PD98059 (allosteric MEK inhibitor), imatinib (tyrosine kinase inhibitor) or tofacitinib (Janus kinase inhibitor) had an inhibitory effect				
		Nc1ccc(C(=O)c2ccc(F)cc2)cc1 [Compound T7, (4-aminophenyl)(4-fluorophenyl)methanone]		no such effect	no inhibition	no inhibitory effect	
no appreciable binding	no appreciable binding	CCCN1C(=O)c2cc(NC(=O)OCC)ccc2Oc2ccccc21 [BT2-Pr, ethyl (11-oxo-10-propyl-10,11-dihydrodibenzo[b,f][1,4]oxazepin-2-yl)carbamate]					
		COC(=O)Nc1nc2ccc(C(=O)c3ccc(F)cc3)cc2[nH]1 [Compound T6, Flubendazole, reference compound]	inhibited migration	blocked this reparative response	inhibited less potently	inhibited serum-inducible proliferation at concentrations in a dose-dependent manner	serum-inducible c-Fos expression (Western blot) [7]: inhibit; endothelial network (tubule) formation on Matrigel [8]: inhibited network formation
		COc1cc(/C=C/C(=O)CC(=O)/C=C/c2ccc(O)c(OC)c2)ccc1O [curcumin, reference compound]					endothelial network formation ([8]; 1 μM, after 4 h): no inhibition; inhibition at 30 µM ([8]; Homo sapiens, 30 μM, after 4 h): ~25%; inhibition at 40 µM ([8]; Homo sapiens, 40 μM, after 4 h): ~50%
no appreciable binding	no appreciable binding	CCN1C(=O)c2cc(NC(=O)COC)ccc2Oc2ccccc21 [BT2-MeOA, N-(10-ethyl-11-oxo-10,11-dihydrodibenzo[b,f][1,4]oxazepin-2-yl)-2-methoxyacetamide]					solubility relative to BT2 and analogues [11]: greater solubility than BT2; inhibition of serum-inducible proliferation compared with BT2 ([4]; 0.4 or 0.8 μM): Neither BT2-MeOA nor any other BT2 analogue had the ability to inhibit; inhibition of network formation on Matrigel (FIG. 5B) ([8]; 1 μM): Neither BT2-MeOA nor any other BT2 analogue had the ability to inhibit
		COCCOC(=O)NC(=O)Nc1ccc(C(=NO)c2ccc(Cl)cc2)cc1 [Compound T4]	inhibited migration	blocked this reparative response	inhibited less potently	inhibited serum-inducible proliferation at concentrations in a dose-dependent manner	serum-inducible c-Fos expression (Western blot) [7]: inhibit; endothelial network (tubule) formation on Matrigel [8]: inhibited network formation

SMILES	binding to His-MEK1 (SPR) [5]	binding to His-MEK2 (SPR) [6]	migration of BAEC toward VEGF-A165 [1]	endothelial regrowth after mechanical injury in vitro [2]	serum-inducible FosB/ΔFosB expression (Western blot) [3]	serum-inducible endothelial proliferation (xCELLigence cell index) [4]	other results
COc1cccc(-c2cc(=O)c3ccccc3o2)c1N [PD98059, reference compound]	bound to both His-MEK1 and His-MEK2	bound to both His-MEK1 and His-MEK2	neither BT3, nor PD98059 (allosteric MEK inhibitor), imatinib (tyrosine kinase inhibitor) or tofacitinib (Janus kinase inhibitor) had an inhibitory effect				IL-1β-inducible p-p38 [9]: no effect; IL-1β-inducible p-SAPK/JNK [10]: no effect
